# Earlier results as cited in patent US20040115261A1, “Controlled delivery of tetracycline compounds and tetracycline derivatives” (priority 2003, published 2004).
# Details: based on steady-state pharmacokinetics, minimum antibiotic serum concentration = lowest concentration known to exert a significant antibiotic effect
smiles,measurement,value
CN(C)[C@@H]1C(O)=C(C(N)=O)C(=O)[C@@]2(O)C(O)=C3C(=O)c4c(O)cccc4[C@@](C)(O)[C@H]3C[C@@H]12 [tetracycline],plasma antibiotic threshold level,0.5 µg/mL
